The test system of one assay is ocular margins. Nature of the assay: Cooling duration bioassay on eyelids/ocular margins. Type of assay: in vivo, human. Conditions: for Eyelids/Ocular Surface: Table 6, cooling duration, non-keratinized. An excerpt:
(§1) FIG. 1. Comparison of cooling duration of various p-menthanecarboxamide analogs on philtrum skin versus ocular margins. The philtrum skin is keratinized, but the ocular margins are not. The test substances numbered 1 to 11 are: D-Ala-OiPr, Gly-OiPr, D-Ala-OEt, D-Ala-OMe, D-Ala-GlynPr, GlynPr, D-Ala-OnBu, GlynBu, GlyOEt, L-Ala-OEt, and N-Me-D-Ala-OEt, respectively. Two outliers (1 and 2) were identified as preferred embodiments because they preferentially cool the ocular margins. The nasal cavity surfaces like the ocular margins are not keratinized.
(§2) Cooling agents have been assayed in various ways depending on intended use. For example, for the skin the test substance can be applied on philtrum skin, using descriptions of coolness on a scale of 0 to 3. For the ocular surface, the active ingredient can be applied to the closed eyelids using a wipe. In the oral cavity, drug applications are on the posterior dorsal surface of the tongue. For the oropharyngeal surface, the cooling agent may be applied as an orally disintegrating tablet. The ability of a cooling agent to antagonize a noxious stimuli may also be tested, using nociception from citric acid or chili pepper sauce. Responses are usually measured using a Visual Analog Scale with a numerical rating. For nasal responses, however, such procedures have not been standardized. Some endpoints to consider are open and comfortable breathing, the presence or absence of sniffles, and the secretion of phlegm.

A further assay relates to philtrum skin. Nature of the assay: Cooling duration bioassay on philtrum skin. Type of assay: in vivo, human.
From the text: as §1, §2

Another assay deals with nasal cavity. Nature of the assay: Nebulizer screening of TRPM8 agonists for sensations in the nasal cavity. Type of assay: in vivo, human. Conditions: NasoNeb nebulizer; for Sensory effects after delivery into the nasal cavity: 3 to 5 sec per nostril. The method, then:
Formulations for nebulization with NasoNeb® used a standard recipe of (Table 8): 1% of the active ingredient (1 to 10 mg/mL), 2% Tween 80 (Polysorbate 80), 1 to 5% ethanol, and made up to 100% with water. The mixture is centrifuged in a FlackTek, Inc., Speedmixer for at least 10 min at 3000 rpm. The Speedmixer spins the sample in 3 dimensions. The result is a white homogeneous liquid suspension with some of the solids now dissolved. For dosing, ˜2 to 3 mL is loaded into the canister of the nebulizer. The nebulizer nozzle tip is placed in the nostril and activated by pressing a button for 3 to 5 sec using a clock timer. […] For D-Ala-OiPr a 5-sec activation will deliver 2*0.73 mL*2 mg/ml, or a total dose of 3 mg per nose. The nasal cavity is relatively tolerant to exogenous agents with irritant properties, as many rinses are used for rhinitis and sinusitis. For some p-menthanecarboxamide analogs, a 2% (20 mg/mL) solution is possible and contemplated. An ideal agent reproduces a comfortable cooling or sensations of negative heat flux in the nasal cavity. […] Heat flux refers to the rate of heat transfer per unit area. The sinonasal cavity mucosa differs from philtrum skin and ocular margins in histology, so the choice of the right molecule must be made by experiment. The TRPM8 agonists were chosen for screening using a nebulizer for delivery. The NasoNeb system is powerful and effective for the OMC (FIG. 3). The delivery time per nostril in three to five seconds. […] These parameters were estimated in the initial trials: • Onset and offset of cooling sensations in the nasal cavity. • The intensity and quality of the cooling sensations in the nasal cavity. • Presence of effects such as sneezing or cough after dosing. • Degree of nasal stuffiness on a scale of 0 to 5. • Degree of rhinorrhea and phlegm in nasal secretions. • Questions regarding comfort and sleep at night.

Another assay addresses T1, hTRPM8 channel (Homo sapiens, UniProt Q7Z2W7).
T1 construct: host or cells: CHO cells
Nature of the assay: TRPM8 receptor assay, calcium entry (Fluo-8, FLIPR) in transfected CHO cells. It is filed as cell-based. As to conditions: for EC50: CHO cells transfected with hTRPM8, Fluo-8 calcium kit, FLIPR; for Potency Relative to L-menthol: ratio of TRPM8 EC50 values, menthol = 1.0. An excerpt: FIG. 4. Agonist activities of TRPM8 analogs. […] The relative fluorescence (RF) unit on the ordinate represents calcium entry into transfected cells. […] The structures of these compounds are in Table 4.
The applicant has synthesized and examined a series of p-menthanecarboxamides conjugated to amino acid esters. […] This class of molecules is called N-alkylcarbonyl-amino acid esters. GlyOiPr is a p-menthanecarboxamide conjugate of glycine isopropyl (iPr) ester. It is similar in structure to WS-5, a cooling agent used as a food additive. WS-5 is the p-menthane-glycine ethyl (Et) ester, or GlyOEt. […] These in vitro effects were measured in CHO cells transfected with the hTRPM8 channel. Receptor activity was quantified using a Fluo-8 calcium kit and a Fluorescence Imaging Plate Reader ([…]™).

In a further assay the test system is oral cavity. As to the kind of experiment: Chili-pepper sauce test (oral cavity). Conditions: Table 6; grades 0, +, ++ without key. Also noted: scale not given here. It is filed as in vivo, human.
From the text: as §2

The next assay has as its system ostiomeatal complex. As to the kind of experiment: Case studies: nebulized cooling agent in subjects with rhinitis and rhinosinusitis. Type of assay: in vivo, human. As to conditions: NasoNeb delivery in subjects with rhinosinusitis. An excerpt:
Eight subjects with rhinitis and rhinosinusitis volunteered to test cooling agents delivered with the NasoNeb® nebulizer (FIG. 3). The results were clear, robust, and evident. No statistical analysis was necessary. In a 3 to 5-day course of nebulization t.i.d., all subjects reported the ability to manage and control stuffed-up breathing in their activities. All reported comfortable sleep. The sounds of sniffling and congestion of the nose (“sniffles”), snorting, or gurgling were still present, but to a lesser degree. The subject felt it was easier to blow out liquids from the nasal cavity onto a tissue, and the volume and frequency of blowing decreased. Viscous yellow mucus was less in volume and density. The number of wipes deposited daily into a waste basket decreased by >50%. The subjects-were cheerful and enthusiastic because nasal discomfort was under control. As one subject remarked: “The stuffed-up nose problem is now history!” Severat of these cases are reported below as “Case Studies.”
The subject was given a NasoNeb® nebulizer (unavailable in China) and five individual bottles containing 15 mL of a 1% GlyOiPr solution (suspended in 2% Tween 80, 5% ethanol, and 92% water). They were shown how to load the NasoNeb canister with about 2 mL of liquid and activate the device for a 3-second dose into each nostril. The recommended dosage was three times a day, starting in the morning and at about 6-hour intervals, and for five days.
The subject agreed to using the NasoNeb nebulizer with a cooling agent. They were given a NasoNeb nebulizer and three bottles, each containing 15 ml of a 1% GlyOiPr solution (suspended in 2% Tween 80, 5% ethanol, and 92% water). They were shown how to load the NasoNeb canister with about 2 mL of liquid and activate the device for a 3-second dose into each nostril. The recommended dosage was three times a day, starting in the morning and at about 6-hour intervals, and for five days. After a 5-day trial, the subject noted a significant improvement in sleep and comfortable breathing. […] Their headaches were gone, and their appetite improved. They were advised to continue using the Nebulizer/coolant for another week and then on an as-needed basis. Their family has noticed that the subject has become less withdrawn, more engaging, and interested in their surroundings.
The subject volunteered for a trial with GlyOiPr. They were given a NasoNeb® machine and a plastic squeeze bottle containing 50 mL of GlyOiPr at 3 mg/mL suspended in 1% ethanol/2% polysorbate 80. They learned how to load the canister and activate the pump. Then, they were instructed to rinse their nose thoroughly first thing in the morning and then use the Nebulizer at 5 sec per nostril to deliver the solution. The procedure was to be repeated at 2 hours and 5 hours later to total three daily activations. The subject was interviewed after dosing for three days. They said breathing was much easier at night after the dosing, and they slept well. Nasal secretions were still present but less in volume. […] They were encouraged to use the Nebulizer as needed but not to exceed three daily doses. Three weeks after the start of the experiment, they reported that they were in complete control of their rhinitis. They would do a single dose at night before sleep and one in the morning when needed. They no longer felt congested, and the headaches were gone. The slimy phlegm in the nostrils was gone, and crusting was absent. Their nose felt clean. Their social life improved.
Their main complaint was episodes at night when they would wake up and not be able to breathe comfortably. Sleep apnea and lung disorders were ruled out, and the diagnosis was rhinosinusitis. This was confirmed by a computerized tomography scan and endoscopic examination by a qualified ENT specialist. They agreed to test the preferred embodiments GlyOnPr, GlyOiPr, D-Ala-OnPr, and D-Ala-OiPr systematically, one after the other.

Setting [1] is: Table 6, cooling duration, keratinized skin.

From US20250288583A1, “Treatment of Mucus Hypersecretion” (priority 2024, published 2025) come the findings set out here.

T1 sequence (Q7Z2W7 whole entry): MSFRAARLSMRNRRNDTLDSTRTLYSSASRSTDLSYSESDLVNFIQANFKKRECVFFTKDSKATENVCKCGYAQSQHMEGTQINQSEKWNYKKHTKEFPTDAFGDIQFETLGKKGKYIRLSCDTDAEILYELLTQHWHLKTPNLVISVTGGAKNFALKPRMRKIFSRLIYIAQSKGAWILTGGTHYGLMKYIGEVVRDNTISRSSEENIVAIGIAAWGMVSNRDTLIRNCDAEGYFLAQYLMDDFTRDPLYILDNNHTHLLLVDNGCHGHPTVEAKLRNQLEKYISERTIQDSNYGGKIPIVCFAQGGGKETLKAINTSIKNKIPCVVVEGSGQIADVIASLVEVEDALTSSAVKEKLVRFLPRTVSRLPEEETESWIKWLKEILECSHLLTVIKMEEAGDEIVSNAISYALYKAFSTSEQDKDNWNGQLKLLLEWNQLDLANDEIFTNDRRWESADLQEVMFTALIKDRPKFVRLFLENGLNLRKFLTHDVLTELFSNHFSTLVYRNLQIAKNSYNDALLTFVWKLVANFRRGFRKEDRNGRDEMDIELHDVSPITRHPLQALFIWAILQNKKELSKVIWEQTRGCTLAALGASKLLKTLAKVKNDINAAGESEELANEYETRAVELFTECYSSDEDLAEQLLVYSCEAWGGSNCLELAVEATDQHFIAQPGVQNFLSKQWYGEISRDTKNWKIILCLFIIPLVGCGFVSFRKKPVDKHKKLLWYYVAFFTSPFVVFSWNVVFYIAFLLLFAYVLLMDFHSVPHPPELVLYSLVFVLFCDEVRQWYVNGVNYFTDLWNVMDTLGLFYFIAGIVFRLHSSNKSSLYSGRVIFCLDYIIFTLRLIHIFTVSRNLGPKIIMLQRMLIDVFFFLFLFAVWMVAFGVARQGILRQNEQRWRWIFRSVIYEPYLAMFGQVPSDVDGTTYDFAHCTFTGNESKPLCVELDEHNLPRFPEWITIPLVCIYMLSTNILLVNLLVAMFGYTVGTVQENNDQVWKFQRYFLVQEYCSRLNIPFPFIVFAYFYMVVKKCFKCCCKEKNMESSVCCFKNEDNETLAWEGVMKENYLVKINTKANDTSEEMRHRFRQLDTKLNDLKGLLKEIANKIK

In general, EC50 refers to the concentration that produces a half-maximal response. With `CCOC(=O)[C@@H](C)NC(=O)[C@@H]1C[C@H](C)CC[C@H]1C(C)C` [D-Ala-OEt, (R)-2-[((1R,2S,5R)-2-isopropyl-5-methyl-cyclohexanecarbonyl)-amino]-propionic acid ethyl ester], the “Eyelids/Ocular Surface” value in the assay with ocular margins amounted to 180 min. Further, the “Philtrum Skin” value in the assay on philtrum skin (setting [1]) is recorded as 103 min. Moreover, in the assay on nasal cavity, the “Cooling duration in the nasal cavity” value is about 15 min and the “Sensory effects after delivery into the nasal cavity” value (shortened to “Sensory effects”) is listed as “Bitter taste, causes coughing”. In addition, on hTRPM8 channel, the EC50 is 270 nM and the “Potency Relative to L-menthol” value was found to be 14.0.
On to `COC(=O)C(C)NC(=O)[C@@H]1C[C@H](C)CC[C@H]1C(C)C` (stereo partly drawn) [D-Ala-OMe], for which, in the assay on ocular margins, the “Eyelids/Ocular Surface” value is given as 120 min. The “Philtrum Skin” value in the assay on philtrum skin (setting [1]) is on record as 77 min. Besides, at hTRPM8 channel, the half-maximal effective concentration (EC50) is 590 nM and the “Potency Relative to L-menthol” value amounted to 6.4.
On to `CCCCOC(=O)C(C)NC(=O)[C@@H]1C[C@H](C)CC[C@H]1C(C)C` (stereo partly drawn) [D-Ala-OnBu], for which the “Chili-Pepper Sauce Test” value with oral cavity amounted to 0. Moreover, in the assay with ocular margins, the “Eyelids/Ocular Surface” value came to 40 min. In the assay with philtrum skin (setting [1]), the “Philtrum Skin” value turned out to be 80 min. For the same compound, on hTRPM8 channel, the EC50 turned out to be 1030 nM and the “Potency Relative to L-menthol” value came out at 3.7.
Turning to `CCCOC(=O)[C@@H](C)NC(=O)[C@@H]1C[C@H](C)CC[C@H]1C(C)C` [D-Ala-OnPr, (R)-2-[((1R,2S,5R)-2-isopropyl-5-methyl-cyclohexanecarbonyl)-amino]-propionic acid n-propyl ester], the “Eyelids/Ocular Surface” value with ocular margins was found to be 65 min. For the same compound, the “Relief of stuffiness and breathing” value in the assay with ostiomeatal complex was “provided relief”. The “Philtrum Skin” value with philtrum skin (setting [1]) amounted to 108 min. The “Sensory effects” value with nasal cavity is “Strong penetrating cool at 3 mg/mL. Excellent for viral ARS”.
With `CC(C)[C@@H]1CC[C@@H](C)C[C@H]1C(=O)NCCc1ccccn1` [FEMA 4549, (1R,2S,5R)-N-(2-(pyridin-2-yl)ethyl)-3-p-menthanecarboxamide, reference compound], the “Sensory effects” value in the assay with nasal cavity was “Although potent on TRPM8 receptor, slow onset and absence of refreshing cooling”.
Turning to `COC(=O)CNC(=O)[C@@H]1C[C@H](C)CC[C@H]1C(C)C` [GlyOMe], the “Ocular Surface” value with ocular margins (Table 7, Gly esters) came to 5 min. In addition, the “Philtrum Skin” value with philtrum skin (Table 7, Gly esters) is on record as 10 min. In addition, at hTRPM8 channel, the EC50 turned out to be 500 nM and the “Potency Relative to L-menthol” value is on record as 7.6.
`CCOC(=O)[C@H](C)NC(=O)[C@@H]1C[C@H](C)CC[C@H]1C(C)C` [L-Ala-OEt, (S)-2-[((1R,2S,5R)-2-isopropyl-5-methyl-cyclohexanecarbonyl)-amino]-propionic acid ethyl ester]: in the assay with oral cavity, the “Chili-Pepper Sauce Test” value was 0. For the same compound, the “Eyelids/Ocular Surface” value in the assay with ocular margins is recorded as 0 min. The “Philtrum Skin” value with philtrum skin (setting [1]) is reported as 34 min. Moreover, the “Sensory effects” value in the assay on nasal cavity is “Very little cooling, low potency on TRPM8, good only as negative control”. In addition, on hTRPM8 channel, the EC50 was 24000 nM and the “Potency Relative to L-menthol” value is recorded as 0.2.
Turning to `CCOC(=O)C(C)NC(=O)[C@@H]1C[C@H](C)CC[C@H]1C(C)C` (stereo partly drawn) [L-Ala-OiPr], the “Chili-Pepper Sauce Test” value in the assay on oral cavity is 0. Besides, the “Eyelids/Ocular Surface” value in the assay with ocular margins worked out at 15 min. Moreover, the “Philtrum Skin” value in the assay on philtrum skin (setting [1]) stood at 27 min.
On to `CCOC(=O)C(C)NC(=O)[C@@H]1C[C@H](C)CC[C@H]1C(C)C` (stereo partly drawn) [L-Ala-OnBu], for which the “Chili-Pepper Sauce Test” value in the assay with oral cavity was 0. Also, the “Eyelids/Ocular Surface” value with ocular margins worked out at 0 min. In the assay with philtrum skin (setting [1]), the “Philtrum Skin” value is reported as 0 min.
For `CCOC(=O)C(C)NC(=O)[C@@H]1C[C@H](C)CC[C@H]1C(C)C` (stereo partly drawn) [L-Ala-OnPr], in the assay on oral cavity, the “Chili-Pepper Sauce Test” value is on record as 0. The “Eyelids/Ocular Surface” value with ocular margins is listed as 10 min. Also, the “Philtrum Skin” value in the assay on philtrum skin (setting [1]) stood at 22 min.
For the compound `O=C1NC(c2cccc([N+](=O)[O-])c2)=CCN1c1ccccc1O` [icilin, 1-[2-hydroxy]-4-[3-nitrophenyl]-1,2,3,6-tetrahydropyrimidine-2-one, reference compound], in the assay with nasal cavity, the “Sensory effects” value is “Difficult to form a homogeneous suspension, causes systemic cooling at higher doses”.
